Test results: patent US10092643B2, “Prophylactic and immunomodulatory compositions and uses” (Kherion Technology Limited, priority 2005, dated 2018)

Columns and labels:
[1] = test system: Mtb specific T cells; assay: expansion of Mtb specific T cells after S1P administration to TB-infected macrophages; type: cell-based; conditions: S1P administered to TB-infected macrophages
[2] = test system: macrophages and epithelial cells; assay: S1P given before infection: control of infection by macrophages and epithelial cells; type: cell-based; conditions: S1P administered before infection
[3] = test system: macrophagic phospholipase D (PLD); conditions: cited from earlier work
[4] = test system: Mtb-infected macrophages; conditions: cited from earlier work
[5] = test system: Mycobacterium tuberculosis; conditions: human macrophages; concentration close to physiologic ones; cited from earlier work
[6] = test system: Mycobacterium tuberculosis; conditions: MTB-infected mice, intravenously injected; cited from earlier work
[7] = test system: dendritic cells; conditions: administered to dendritic cells in vitro; cited from earlier work
[8] = test system: T cells; conditions: Jin et al., Blood 2003; cited from earlier work
[9] = safety of S1P administration in mice; conditions: levels at which immunoregulatory activity can be measured
[10] = test system: M. tuberculosis (Erdman); assay: S1P as adjuvant for BCG vaccine in mice (immunogenicity and protection protocol); conditions: protocol to be followed

CCCCCCCCCCCCC/C=C/C(O)C(N)COP(=O)(O)O [S1P, D-erythro-sphingosine 1-phosphate]
expansion of Mtb specific T cells [1]: induces expansion of Mtb specific T cells | capacity to control an infection [2]: increases the capacity of macrophages and epithelial cells to control an infection | PLD activity in macrophages [3]: increase PLD activity in macrophages | phagolysosomal fusion [4]: promote phagolysosomal fusion | antimicrobial activity / intracellular killing of TB [5]: induce antimicrobial activity in human macrophages leading to the intracellular killing of TB | mycobacterial growth [6]: significantly reduced | pulmonary tissue damage [6]: significantly reduced | secretion of cytokine profiles (Th1/Th2 responses) [7]: alter the secretion of cytokine profiles | activation and proliferation of T cells [8]: inhibit activation and proliferation of T cells | safety [9]: appears safe | properties as a vaccine adjuvant [10]: novel, unexpected and advantageous properties as a vaccine adjuvant
